Test results published in patent US20240277682A1, “PHARMACEUTICAL HYDRONIDONE FORMULATIONS FOR DISEASES” (Gyre Therapeutics, Inc., priority 2021, published 2024).
Like-named read-outs stand apart in the source and are kept apart here.

Assays:
[1] = molecular target: T1, human CYP 1A2 (Homo sapiens, UniProt P05177); assay: biochemical
T1 sequence (P05177 1-516): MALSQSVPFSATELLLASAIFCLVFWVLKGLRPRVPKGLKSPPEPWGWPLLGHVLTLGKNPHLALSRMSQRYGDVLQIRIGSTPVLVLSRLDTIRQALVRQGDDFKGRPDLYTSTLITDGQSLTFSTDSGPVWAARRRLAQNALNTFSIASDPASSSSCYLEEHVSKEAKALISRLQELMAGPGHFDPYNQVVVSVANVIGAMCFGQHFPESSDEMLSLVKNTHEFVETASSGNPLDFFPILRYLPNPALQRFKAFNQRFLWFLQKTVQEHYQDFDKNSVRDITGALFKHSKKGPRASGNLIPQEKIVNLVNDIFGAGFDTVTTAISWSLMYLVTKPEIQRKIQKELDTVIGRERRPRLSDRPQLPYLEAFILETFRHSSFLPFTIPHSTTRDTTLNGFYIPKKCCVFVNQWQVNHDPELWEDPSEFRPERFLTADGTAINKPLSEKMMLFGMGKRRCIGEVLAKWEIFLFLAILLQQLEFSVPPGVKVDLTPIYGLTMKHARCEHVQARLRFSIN
Experimental: In vitro study investigated whether Hydronidone is inhibitor for human cytochrome P450 (CYP450). The effects of different Hydronidone concentrations were determined by the fluorescence intensity of metabolic substrates of CYP1A2, 2C9, 2C19, 2 D6 and 3A4, produced under the effect of the relevant enzyme. The respective IC50 value were calculated in the event of observed inhibition with hydronidone.

[2] = Parallel group PK study of multiple ascending oral doses (Example 9); assay type: in vivo, human
Experimental: This was randomized, open-label, parallel group PK study of multiple ascending oral doses of Hydronidone in healthy Chinese subjects.
In this study, ascending oral doses of Hydronidone of 200 mg, 400 mg, and 600 mg TID, were administered to 27 healthy subjects (15 males and 12 females) divided into 3 groups (9 subjects/group), for four (4) consecutive days. This was an inpatient study. Hydronidone was administered under fasted conditions. Blood and urine samples were collected for PK assessments. The PK assessments were performed upon single (after the first dose) and multiple dosing. Standard safety evaluations were also performed including physical examination, ECG, hematology, serum biochemistry and urinalysis.

[3] = PK study of single ascending oral doses in healthy volunteers (Example 7); assay type: in vivo, human; details: for CL renal / AUC / AUC(0-t) / Cmax / Tmax: male, human; for CL renal: plasma and urine; for CL renal / AUC / AUC(0-t) / Cmax / Tmax / Cl_F_pred / HL_Lambda_z / Lambda_z / Vz_F_pred: fasted; for CL renal / AUC / AUC(0-t) / Cmax / Cl_F_pred / HL_Lambda_z / Lambda_z / Vz_F_pred / Amount_Recovered / Percent_Recovered (urinary percentage of Hydronidone): n = 12, Mean(SD); for AUC / AUC(0-t) / Cmax / Tmax: plasma; for AUC: healthy Chinese subjects, read-out: AUCINE_pred; for Tmax: n = 12, Median (Min-Max); for Amount_Recovered / Percent_Recovered (urinary percentage of Hydronidone): urine
Experimental: This was randomized, open-label, 4-period, crossover PK study of single ascending oral doses of Hydronidone in healthy volunteers.
Ascending single oral doses of 200 mg, 400 mg, 600 mg and 800 mg of Hydronidone were given to 12 eligible, healthy male Chinese subjects, 26-38 years of age, satisfying all inclusion and exclusion criteria, and randomly divided into four dose groups, 3 subjects per group, under fasted conditions. According to the Williams Design, the subjects in each group were treated with Hydronidone at four different doses in four periods. The PK blood samples were collected at: 0 (pre-dose), 10 min, 20 min, 30 min, 40 min, 1 hr, 1.5 hr, 2 hr, 3 hr, 4 hr, 5 hr, 6 hr, 8 hr, 10 hr, 12 hr, 16 hr, and 24 hr, and 48 hr post-dose. The subjects also provided PK urine samples at 0 (pre-dose), 5 hr, 12 hr, and 24 hr post-dose. There was additional 24 hr washout period after the end of collection of PK samples, a total of 48 hrs between the first and the next dose level administration. Blood and urine samples were analysed for determination of plasma and urine concentrations of Hydronidone and its metabolites (M3).

[4] = test system: liver fibrosis; assay: HSA-induced and DMN-induced liver fibrosis in rats; assay type: in vivo
Experimental: Hydronidone anti-fibrotic effects were evaluated in several animal models of liver fibrosis, such as human serum albumin (HSA)-induced liver fibrosis in rats, dimethyl nitrosamine (DMN)-induced liver fibrosis in rats, and carbon tetrachloride (CCl4)-induced liver fibrosis in mice. […] In the CCl4-induced liver fibrosis in mice, Hydronidone effects were the most prominent at the doses of 3-10 mg/kg/day, although some effects were also shown at the dose of 1 mg/kg/day. In some embodiments, this dose range corresponds to human equivalent dose (HED) range of 15-50 mg. […] The HED of these rat doses are in the range of 100-2,400 mg which were all tested as safe in Phase I clinical trials of Hydronidone, with the 100 mg dose being […] the maximum daily dose of 360 mg (administered as 120 mg TID) administered to the subjects with liver fibrosis due to chronic Hepatitis B in the ongoing Phase II clinical study of efficacy and safety of Hydronidone in China.

Compound: Cc1ccc(=O)n(-c2ccc(O)cc2)c1 [Hydronidone, N-(4-hydroxyphenyl)-5-Methyl-2-pyridone]
- IC50 [1]: > 100 µM
- number of adverse events reported ([2]; 200 mg TID and 400 mg TID multiple-dose groups, mild): 7 adverse events
- dose proportionality of exposure ([2]; 200-600 mg TID): increasing with the dose but without strict dose proportionality
- deaths and SAEs ([2]; 200-600 mg TID, 4 days): No deaths nor SAEs were reported
- safety and tolerability ([2]; 200-600 mg TID, 4 days): safe and well tolerated
- exposure by sex ([2]; across dose levels): Male subjects had lower exposures as compared to female subjects
- Tmax ([2]; both sexes, human, plasma, oral, 200, 400, 600 mg TID, fasted, healthy Chinese subjects): ~1 h
- accumulation ([2]; single vs multiple dosing, TID for 4 days): no obvious accumulation
- plasma level at 36 hrs. post-dose ([2]; upon single dosing, parent drug and major metabolites): undetectable
- amount of intact drug excreted via urine during 48 h ([3]; first of four values (doses 200, 400, 600, 800 mg): 200 mg): 82.25 ± 40.95 mg
- amount of intact drug excreted via urine during 48 h ([3]; fourth of four values: 800 mg): 234.72 ± 210.50 mg
- CL renal ([3]; single oral dose 200 mg): 14.7 mL/min
- CL renal ([3]; single oral dose 400 mg): 11.1 mL/min
- CL renal ([3]; single oral dose 600 mg): 9.83 mL/min
- CL renal ([3]; single oral dose 800 mg): 8.7 mL/min
- AUC ([3]; single oral dose 200 mg): 1380 ng·h/mL
- AUC(0-t) ([3]; single oral dose 200 mg): 1360 ng·h/mL
- Cmax ([3]; single oral dose 200 mg): 715 ng/mL
- Tmax ([3]; single oral dose 200 mg): 19.8 min
- AUC ([3]; single oral dose 400 mg): 2800 ng·h/mL
- AUC(0-t) ([3]; single oral dose 400 mg): 2780 ng·h/mL
- Cmax ([3]; single oral dose 400 mg): 1400 ng/mL
- Tmax ([3]; single oral dose 400 mg): 19.8 min
- AUC ([3]; single oral dose 600 mg): 5010 ng·h/mL
- AUC(0-t) ([3]; single oral dose 600 mg): 4920 ng·h/mL
- Cmax ([3]; single oral dose 600 mg): 2500 ng/mL
- Tmax ([3]; single oral dose 600 mg): 40.2 min
- AUC ([3]; single oral dose 800 mg): 6310 ng·h/mL
- AUC(0-t) ([3]; single oral dose 800 mg): 6290 ng·h/mL
- Cmax ([3]; single oral dose 800 mg): 2960 ng/mL
- Tmax ([3]; single oral dose 800 mg): 40.2 min
- amount of intact drug excreted via urine during 48 h ([3]; second of four values: 400 mg): 183.75 ± 142.14 mg
- Cl_F_pred ([3]; single oral dose 200 mg): 154(39.65) L/hr
- HL_Lambda_z ([3]; single oral dose 200 mg): 6.9(2.06) hr
- Lambda_z ([3]; single oral dose 200 mg): 0.1093(0.03) l/hr
- Vz_F_pred ([3]; single oral dose 200 mg): 1540(644.41) L
- Cl_F_pred ([3]; single oral dose 400 mg): 154(44.83) L/hr
- HL_Lambda_z ([3]; single oral dose 400 mg): 5.26(1.58) hr
- Lambda_z ([3]; single oral dose 400 mg): 0.1434(0.04) l/hr
- Vz_F_pred ([3]; single oral dose 400 mg): 1180(530.69) L
- Cl_F_pred ([3]; single oral dose 600 mg): 129(35.67) L/hr
- HL_Lambda_z ([3]; single oral dose 600 mg): 6.46(2.07) hr
- Lambda_z ([3]; single oral dose 600 mg): 0.1141(0.02) l/hr
- Vz_F_pred ([3]; single oral dose 600 mg): 1180(407.19) L
- Cl_F_pred ([3]; single oral dose 800 mg): 134(35.93) L/hr
- HL_Lambda_z ([3]; single oral dose 800 mg): 5.54(0.86) hr
- Lambda_z ([3]; single oral dose 800 mg): 0.1278(0.02) l/hr
- Vz_F_pred ([3]; single oral dose 800 mg): 1080(336.89) L
- safety and tolerability ([3]; single oral doses of 200, 400, 600, 800 mg, Chinese healthy subjects): safe and well tolerated with no adverse events nor SAEs reported
- amount of intact drug excreted via urine during 48 h ([3]; third of four values: 600 mg): 218.93 ± 182.73 mg
- Amount_Recovered ([3]; single oral dose 200 mg): 1.27(1.34) L*mg/L
- Percent_Recovered (urinary percentage of Hydronidone) ([3]; single oral dose 200 mg): 0.634±0.57%
- Percent_Recovered (urinary percentage of Hydronidone) ([3]; single oral dose 200 mg, listed as hydronidone): 0.634(0.57) %
- Amount_Recovered ([3]; single oral dose 400 mg): 1.92(0.87) L*mg/L
- Percent_Recovered (urinary percentage of Hydronidone) ([3]; single oral dose 400 mg): 0.479±0.22%
- Percent_Recovered (urinary percentage of Hydronidone) ([3]; single oral dose 400 mg, listed as hydronidone): 0.479(0.22) %
- Amount_Recovered ([3]; single oral dose 600 mg): 2.86(1.19) L*mg/L
- Percent_Recovered (urinary percentage of Hydronidone) ([3]; single oral dose 600 mg): 0.476±0.2%
- Percent_Recovered (urinary percentage of Hydronidone) ([3]; single oral dose 600 mg, listed as hydronidone): 0.476(0.2) %
- Amount_Recovered ([3]; single oral dose 800 mg): 3.22(2.03) L*mg/L
- Percent_Recovered (urinary percentage of Hydronidone) ([3]; single oral dose 800 mg): 0.403±0.25%
- Percent_Recovered (urinary percentage of Hydronidone) ([3]; single oral dose 800 mg, listed as hydronidone): 0.403(0.25) %
- anti-fibrotic effect (level of fibrosis, hydroxyproline, ALT, AST) ([4]; HSA- and DMN-induced liver fibrosis in rats): potent anti-fibrotic effect
- anti-fibrotic effect compared with silymarin extract (positive control) ([4]; rats): comparable or more potent than silymarin extract
- dose range in which anti-fibrotic effects were shown ([4]; rats, depending on the model): 10 to 250 mg/kg/day
